Test results from patent US6741954B2, “Selection method for odorants” (Symrise GmbH & Co. KG, priority 2000, dated 2004).
Where two headings read alike, the source gives them in different places.

How the values were obtained:
Format in all cases: physicochemical
[1] = Headspace above the wet washed hair: relative partition parameter headspace/shampoo (SPME-GC)
Method: (§1) The procedure is analogous in all examples.
The example reflects the scent impression, which is perceived from freshly washed hair. The shampoo is prepared as is generally customary. The mixture of 39 odorants is incorporated into the above-mentioned shampoo (1st) in an amount of 1%. A hair tress (2.5 g) is washed in 100 ml of a 20% shampoo solution in water by immersing 5-10 times and stirring, and then rinsed in 100 ml of clear water by immersing it three times. The hair tress is carefully patted with thin cellulose. The moist hair tress is transferred to a 100 ml Erlenmeyer flask sealed with a septum and left to stand for 3 h. The headspace above the washed and rinsed hair tress is extracted over 15 min using solid phase microextraction (SPME). The SPME needle is desorbed in a GC injector, and a gas chromatogram is recorded. […] The analytical results are then used mathematically as described above.

[2] = Headspace above the shampoo: relative partition parameter (SPME-GC); details: log of amount in headspace relative to amount in shampoo; 1% odorant mixture, SPME 15 min
Method: as §1
The example reflects the scent impression, which is perceived from a freshly opened bottle of shampoo. The mixture of 39 odorants is incorporated into the above-mentioned shampoo (1) in an amount of 1%. 20 g of the shampoo are transferred to a 100 ml Erlenmeyer flask sealed with a septum. The headspace above the shampoo is extracted using a SPME over 15 min. […] The analytical results are then used mathematically as described above.

[3] = Headspace above the soap bar: relative partition parameter (SPME-GC)
Method: as §1
The example reflects the scent impression, which is perceived from a fresh bar of soap. […] 20 g of the grated soap are transferred to a 100 ml Erlenmeyer flask sealed with a septum. The headspace above the shampoo is extracted using a SPME over 15 min. […] The analytical results are then used mathematically as described above.

[4] = Headspace above the washing powder: relative partition parameter (SPME-GC)
Method: as §1
The example reflects the scent impression, which is perceived from a freshly opened pack of laundry detergent. The mixture of 39 odorants is incorporated in the above-mentioned washing powder in an amount of 0.5%. 20 g of the washing powder are transferred to a 100 ml Erlenmeyer flask sealed with a septum. The headspace above the shampoo is extracted using a SPME over 15 min. […] The analytical results are then used mathematically as described above.

[5] = Headspace above the candle wax: relative partition parameter (SPME-GC); details: log of amount in headspace relative to amount in candle wax; 5% odorant mixture, grated nonburning candle, SPME 15 min
Method: as §1
The example reflects the scent impression, which is perceived from a nonburning candle. The mixture of 39 odorants is incorporated into a candle in an amount of 5%. 20 g of the grated candle are transferred to a 100 ml Erlenmeyer flask sealed with a septum. The headspace above the candle is extracted using a SPME over 15 min. […] The analytical results are then used mathematically as described above.

[6] = Headspace above the fresh gel room air freshener: relative partition parameter (SPME-GC); details: log of amount in headspace relative to amount in gel; 5% odorant mixture, 10 liter vessel, 1 h, SPME 15 min
Method: as §1
The example reflects the scent impression, which is perceived above a fresh gel room air freshener. The mixture of 39 odorants is incorporated into an air freshener in an amount of 5%. 100 g of the air freshener are placed in its customary presentation form in a large sealed 10 liter vessel. The air freshener is left to stand for one hour. The headspace above the air freshener is extracted using a SPME over 15 min. […] The analytical results are then used mathematically as described above.

[7] = Headspace above the solution of WC scented block cleaner: relative partition parameter (SPME-GC); details: log of amount in headspace above 1% solution in water relative to amount in WC block; 1% odorant mixture, SPME 15 min
Method: as §1
The example reflects the scent impression, which is perceived from a WC scented block cleaner. The mixture of 39 odorants is incorporated into the toilet block in an amount of 1%. A 1% solution of the toilet block in water is prepared. 20 ml of this solution are transferred to a 100 ml Erlenmeyer flask sealed with a septum. The headspace above the shampoo is extracted by means of a SPME over 15 min. […] The analytical results are then used mathematically as described above.

[8] = log of amount in headspace above wet washed hair relative to amount in shampoo, 1% odorant mixture, 3 h standing, SPME 15 min
[9] = log of amount in headspace relative to amount in soap, 1.2% odorant mixture, grated soap, SPME 15 min
[10] = log of amount in headspace relative to amount in washing powder, 0.5% odorant mixture, SPME 15 min

Compound | Activity (logarithmic partition parameter above wet hair) [1, 8] | Activity (logarithmic partition parameter above shampoo) [2] | Activity (logarithmic partition parameter above soap) [3, 9] | Activity (logarithmic partition parameter above washing powder) [4, 10] | Activity (logarithmic partition parameter above candle wax) [5] | Activity (logarithmic partition parameter above gel room air fresheners) [6] | Activity (logarithmic partition parameter above dissolved WC scented block cleaners) [7] | Activity (logarithmic partition parameter above wet hair) [1] | Activity (logarithmic partition parameter above soap) [3] | Activity (logarithmic partition parameter above washing powder) [4]
CC(C)=CCC/C(C)=C/CO [Geraniol] | −2.043 | −1.839 | −0.952 | −0.976 | −1.273 | −0.365 | −2.045 | – | – | –
CC(=O)/C=C/C1C(C)=CCCC1(C)C (stereo not drawn) [Ionone, alpha] | −1.559 | −1.157 | −0.701 | −0.697 | −1.441 | −0.515 | −1.152 | – | – | –
CC(=O)/C=C/C1=C(C)CCCC1(C)C [Ionone, beta] | −1.636 | −1.282 | −0.837 | −0.778 | −1.606 | −0.662 | −0.819 | – | – | –
CC(C=O)Cc1ccc(C(C)(C)C)cc1 (stereo not shown) [Lilial] | −2.089 | −1.900 | −1.331 | −1.448 | −2.105 | −1.548 | −1.400 | – | – | –
C=CC(C)(O)CCC=C(C)C (stereo not shown) [Linalool] | −1.119 | −0.511 | −0.028 | 0.057 | −0.420 | 0.376 | −1.299 | – | – | –
OCCc1ccccc1 [PEA, phenylethyl alcohol] | −1.349 | −0.742 | 0.170 | −0.176 | −0.632 | 0.245 | −1.636 | – | – | –
CC(=O)OCC=C(C)C [Prenyl acetate] | −0.299 | 0.844 | 1.180 | 1.167 | 0.726 | 0.674 | −1.070 | – | – | –
CC(=O)OC(C)c1ccccc1 (stereo not shown) [Styrolyl acetate] | −1.029 | −0.232 | 0.486 | 0.246 | −0.341 | 0.568 | −1.320 | – | – | –
CC(=O)OC(C)(C)C1CC=C(C)CC1 (stereo not shown) [Terpinyl acetate] | – | −0.561 | – | – | −0.979 | −0.029 | −0.524 | −1.135 | −0.253 | −0.196
CC1=CCC2CC1C2(C)C (stereo not drawn) [alpha-Pinene] | −0.776 | 0.769 | 0.395 | 0.377 | 0.819 | −0.273 | −1.833 | – | – | –
C=C1CCC2CC1C2(C)C (stereo not drawn) [beta-Pinene] | −0.647 | 0.830 | 0.469 | 0.415 | 0.701 | −0.090 | −1.682 | – | – | –
CC1=CCC(C(C)C)=CC1 [gamma-Terpinene] | −0.074 | 1.009 | 0.819 | 0.771 | 0.342 | 0.126 | −1.230 | – | – | –
Caryophyllene | – | −0.279 | – | – | −1.062 | −0.011 | −0.390 | −1.080 | −0.150 | −0.385
